Read-outs that look alike come from different tables or passages of the source.
What was measured:
[1] = system: mouse dorsal skin; type: in vivo; conditions: for Effect on hypodermal thickness: GDX animals of both sexes, p<0.01; for Dermis % (proportion of skin layer) / Epidermis % (proportion of skin layer) / Hypodermis % (proportion of skin layer) / Dermis T (thickness) / Epidermis T (thickness) / Hypodermis T (thickness): 3 weeks treatment; for Dermis T (thickness) / Epidermis T (thickness) / Hypodermis T (thickness): mean ± SEM
Procedure: (§1) Fifty six adult male and female C57BL6 mice 13-15 weeks of age were obtained from Harlan Laboratory (Indiana, USA). […] Animals of intact and GDX control groups were treated with the vehicle alone during the same period. Six hours after the last treatment, all animals were sacrificed.
Since DHT is known to be poorly active by the oral route, it was injected subcutaneously. To determine the DHT dose, a preliminary dose-range study was performed (see supplementary online material, online Table S1).
After shaving the long hair, the dorsal skin was excised, flattened and immediately immersed in 10% buffered formalin. A sample was embedded in paraffin blocks from which 4 μm sections were cut and routinely stained.
Under the light microscope, measurements were performed using the IMAGE-PRO PLUS (Media Cybernetics, USA). Twenty-five readings were scored from each skin layer of each animal. The epidermal thickness was measured from stratum basale to stratum granulosum (excluding stratum corneum), whereas the dermal thickness was the distance between the epidermis and the hypodermis. Finally, the hypodermal thickness was measured as the distance between the dermis and the panniculus carnosus.

[2] = men and women 60-79 years, oral 50 mg once daily, cited from earlier work
[3] = aged individuals, particularly women >70 years; cited from earlier work
[4] = system: androgen receptor (AR); experiment: Immunohistochemistry of androgen receptor in epidermis of mouse dorsal skin; type: in vivo; conditions: GDX males and females, 3 weeks treatment
Procedure: as §1

[5] = GDX females, versus GDX control

| SMILES | Effect on hypodermal thickness [1] | Dermis % (proportion of skin layer) ([1]; GDX female mice) | Epidermis % (proportion of skin layer) ([1]; GDX female mice) | Hypodermis % (proportion of skin layer) ([1]; GDX female mice) | Dermis T (thickness) ([1]; GDX female mice) | Epidermis T (thickness) ([1]; GDX female mice) | Hypodermis T (thickness) ([1]; GDX female mice) | Effect on dermal thickness (in words) ([1]; GDX females) | Increase in dermal thickness [1, 5] | Dermis % (proportion of skin layer) ([1]; GDX male mice) | Epidermis % (proportion of skin layer) ([1]; GDX male mice) | Hypodermis % (proportion of skin layer) ([1]; GDX male mice) | Dermis T (thickness) ([1]; GDX male mice) | Epidermis T (thickness) ([1]; GDX male mice) | Hypodermis T (thickness) ([1]; GDX male mice) | also measured |
| --- | --- | --- | --- | --- | --- | --- | --- | --- | --- | --- | --- | --- | --- | --- | --- | --- |
| C[C@]12CC[C@H](O)CC1=CC[C@@H]1[C@@H]2CC[C@]2(C)C(=O)CC[C@@H]12 [DHEA, dehydroepiandrosterone] | markedly decreased | 75.8% | 3.2% | 21% | 249 ± 11.8^+ μm | 10.5 ± 0.3^+ μm | 69 ± 4.5^++ μm | increase | 19% | 92.8% | 1.7% | 5.5% | 486 ± 28.7 μm | 8.9 ± 0.3 μm | 29 ± 6.2 μm | Increase in epidermal thickness ([1]; GDX females, versus GDX control, p<0.05): 13%; Facial skin pigmentation (yellowness) ([2]; 1 year): significantly decreased; Other components of skin colour (lightness and redness) ([2]; 1 year): remained stable; Skin surface hydratation ([2]; after 12 months): significantly increased; Sebum production [3]: increase |
| C[C@]12CC[C@@H]3c4ccc(O)cc4CC[C@H]3[C@@H]1CC[C@@H]2O [E2] | markedly decreased |  |  |  |  |  |  |  |  |  |  |  |  |  |  | AR labeling / expression in epidermal nuclei [4]: weak AR labeling |
| C[C@]12CCC(=O)C[C@@H]1CC[C@@H]1[C@@H]2CC[C@]2(C)[C@@H](O)CC[C@@H]12 [DHT, 5α-androstane-17β-ol-3-one] | markedly decreased | 79.5% | 2.5% | 18% | 307 ± 13.3^++ μm | 9.6 ± 0.2 μm | 70 ± 4.6^++ μm | increase | 47% | 93% | 2.1% | 4.9% | 451 ± 24.1 μm | 10 ± 0.2 μm | 24 ± 1.9 μm |  |
